For this experiment, the target named is Polymerase acidic protein (Influenza A virus (strain A/Puerto Rico/8/1934 H1N1), UniProt P03433). Put plainly: Inhibition of Influenza replication.

Molecules are shown by their SMILES. pIC50: −log10 of the molar value.

For the compound `O=C(O)C(=O)CC(=O)C1(Cc2ccc(Cl)cc2)CCCN(Cc2ccccc2)C1` (configuration not stated), the pIC50 was 5.80.

`O=C(O)C(=O)CC(=O)C1(Cc2ccc(Cl)cc2)CCN(Cc2ccc(Cl)cc2)CC1` had a pIC50 of 6.74.

The term pIC50 denotes the negative decadic logarithm of the IC50, by convention in mol/L.

The record behind these values is BindingDB's records for doi:10.1128/aac.40.5.1304 (Merck Research Laboratories, 1996).
